Each structure is given as a SMILES string. Where a name gives a salt, the structure may show the parent alone.

The target in this assay is Full length SHP2 protein (Recombinant Human SHP-2) (Homo sapiens, UniProt Q06124). The assay can be described thus: SHP2 biochemical assay (DiFMUP substrate, activating peptide IRSI_2pY). The note with it: DiFMUP substrate, activating peptide IRSI_2pY, 60 min at RT; read-out: SHP-2 Biochemical assay IC50. On the procedure: The inhibition of SHP2 by compounds of the invention was monitored using the surrogate substrate DiFMUP after protein activation by a peptide bearing two appropriately spaced phosphotyrosine. […] The generation of the DiFMU product by activated SHP2 was monitored through Fluorescence measurement with a PerkinElmer Envision reader.
Chain of Full length SHP2 protein (Recombinant Human SHP-2) (Q06124 2-593 limits assumed): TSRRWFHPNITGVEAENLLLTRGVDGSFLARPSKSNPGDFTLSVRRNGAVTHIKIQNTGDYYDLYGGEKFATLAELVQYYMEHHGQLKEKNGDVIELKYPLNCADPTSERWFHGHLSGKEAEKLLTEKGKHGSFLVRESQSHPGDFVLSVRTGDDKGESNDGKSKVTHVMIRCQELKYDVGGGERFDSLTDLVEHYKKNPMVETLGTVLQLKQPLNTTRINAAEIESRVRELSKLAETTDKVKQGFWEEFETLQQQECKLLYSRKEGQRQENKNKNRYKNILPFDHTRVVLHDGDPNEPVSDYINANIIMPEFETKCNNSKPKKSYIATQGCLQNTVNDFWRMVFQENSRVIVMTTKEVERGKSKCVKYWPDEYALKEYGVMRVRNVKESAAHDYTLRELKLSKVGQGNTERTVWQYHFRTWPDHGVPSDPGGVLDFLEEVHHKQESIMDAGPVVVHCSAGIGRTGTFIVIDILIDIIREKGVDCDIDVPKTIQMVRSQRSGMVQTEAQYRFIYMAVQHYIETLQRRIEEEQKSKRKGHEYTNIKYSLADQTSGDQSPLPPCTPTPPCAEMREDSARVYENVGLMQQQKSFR
The inhibitor dose response curves were analyzed with Genedata Screener.
As for `CC1(N)CCN(c2nc(Cl)c(-c3cccc(F)c3)c(C(N)=O)n2)CC1` [Compound 19, 2-(4-Amino-4-methyl-piperidin-1-yl)-6-chloro-5-(3-fluorophenyl)-pyrimidine-4-carboxylic Acid Amide], the IC50 worked out at 87 µM.

For the compound `CC1(N)CCN(c2nc(N)c(-c3cccc(Cl)c3Cl)c(C(=O)NN)n2)CC1` [Compound 21, 6-Amino-2-(4-amino-4-methyl-piperidin-1-yl)-5-(2,3-dichlorophenyl)-pyrimidine-4-carboxylic Acid Hydrazide], the IC50 was determined as 1.6 µM.

For the compound `CC1(N)CCN(c2nc(F)c(-c3cccc(F)c3)c(C(N)=O)n2)CC1` [Compound 22, 2-(4-Amino-4-methyl-piperidin-1-yl)-6-fluoro-5-(3-fluorophenyl)-pyrimidine-4-carboxylic Acid Amide], the IC50 stood at 21 µM.

In the case of `NCC1CN(c2nc(N)c(-c3cccc(Cl)c3Cl)c(C(N)=O)n2)CC12CCOCC2` (stereo not drawn) [Compound 23, 6-amino-2-[4-(aminomethyl)-8-oxa-2-azaspiro[4.5]decan-2-yl]-5-(2,3-dichlorophenyl)pyrimidine-4-carboxamide], the IC50 is 4.7 µM.

For `CC1(N)CCN(c2nc(O)c(-c3cccc(F)c3)c(C(N)=O)n2)CC1` [Compound 25, 2-(4-amino-4-methylpiperidin-1-yl)-5-(3-fluorophenyl)-6-hydroxypyrimidine-4-carboxamide hydrochloride], the IC50 was > 10 µM.

Turning to `Cc1nc(N2C3COCC2CC(N)C3)nc(C(N)=O)c1-c1cccc(Cl)c1Cl` (stereo not drawn) [Compound 33, 2-(7-Amino-3-oxa-9-aza-bicyclo[3.3.1]non-9-yl)-5-(2,3-dichlorophenyl)-6-methyl-pyrimidine-4-carboxylic acid amide], the IC50 stood at 2.4 µM.

As for `NCC1CN(c2nc(N)c(-c3cccc(Cl)c3Cl)c(C(N)=O)n2)CC12COC2` (stereo not drawn) [Compound 34, 6-amino-2-[8-(aminomethyl)-2-oxa-6-azaspiro[3.4]octan-6-yl]-5-(2,3-dichloro-phenyl)pyrimidine-4-carboxamide], the IC50 came to 1.1 µM.

As for `Cc1nc(NC2CCC(CN)C2)nc(C(N)=O)c1-c1cccc(Cl)c1Cl` (stereo not drawn) [Compound 36, 2-(3-Aminomethyl-cyclopentylamino)-5-(2,3-dichloro-phenyl)-6-methyl-pyrimidine-4-carboxylic acid amide], the IC50 worked out at 13 µM.

As to `NC(=O)c1nc(N2CCC3(CC2)CC(N)CCO3)nc(N)c1-c1cccc(Cl)c1Cl` (stereo not drawn) [Compound 38, 6-amino-2-{4-amino-1-oxa-9-azaspiro[5.5]undecan-9-yl}-5-(2,3-dichlorophenyl)pyrimidine-4-carboxamide], the IC50 was found to be 7.6 µM.

On to `NC(=O)c1nc(N2CCC(C3OCCCC3N)CC2)nc(N)c1-c1cccc(Cl)c1Cl` (stereo not drawn) [Compound 39, 6-amino-2-[4-(3-aminooxan-2-yl)piperidin-1-yl]-5-(2,3-dichlorophenyl)pyrimidine-4-carboxamide], for which the IC50 worked out at 6.3 µM.

Consider `NCC1CC2(CCN(c3nc(N)c(-c4cccc(Cl)c4Cl)c(C(N)=O)n3)CC2)CO1` (stereo not drawn) [Compound 40, 6-amino-2-[3-(aminomethyl)-2-oxa-8-azaspiro[4.5]decan-8-yl]-5-(2,3-dichlorophenyl)pyrimidine-4-carboxamide], for which the IC50 was 3.9 µM.

As to `Cc1nc(N2CC3CCC(N)C3C2)nc(C(N)=O)c1-c1cccc(Cl)c1Cl` (stereo not drawn) [Compound 42, 2-(4-Amino-hexahydro-cyclopenta[c]pyrrol-2-yl)-5-(2,3-dichloro-phenyl)-6-methyl-pyrimidine-4-carboxylic acid amide], the IC50 is 4.8 µM.

On to `Cc1nc(NC2CCCC2CN)nc(C(N)=O)c1-c1cccc(Cl)c1Cl` (stereo not drawn) [Compound 43, 2-(2-Aminomethyl-cyclopentylamino)-5-(2,3-dichloro-phenyl)-6-methyl-pyrimidine-4-carboxylic acid amide], for which the IC50 was 3.1 µM.

Take `Cc1nc(N2CC(F)(CN)C2)nc(C(N)=O)c1-c1cccc(Cl)c1Cl` [Compound 44, 2-(3-Aminomethyl-3-fluoro-azetidin-1-yl)-5-(2,3-dichloro-phenyl)-6-methyl-pyrimidine-4-carboxylic acid amide]: the IC50 is 11 µM.

For `Cc1nc(N2CCC2CN)nc(C(N)=O)c1-c1cccc(Cl)c1Cl` (stereo not drawn) [Compound 46, 2-(2-Aminomethyl-azetidin-1-yl)-5-(2,3-dichloro-phenyl)-6-methyl-pyrimidine-4-carboxylic acid amide], the IC50 is 5.5 µM.

For `NC(=O)c1nc(N2CC3CCCC(N)C3C2)nc(N)c1-c1cccc(Cl)c1Cl` (stereo not drawn) [Compound 50, 6-amino-2-(4-amino-octahydro-1H-isoindol-2-yl)-5-(2,3-dichlorophenyl)pyrimidine-4-carboxamide], the IC50 was 10 µM.

In the case of `NC[C@@H]1CN(c2nc(N)c(-c3cccc(Cl)c3Cl)c(C(N)=O)n2)C[C@H]1c1ccccc1` [Compound 51, 6-amino-2-[(3R,4R)-3-(aminomethyl)-4-phenylpyrrolidin-1-yl]-5-(2,3-dichlorophenyl)pyrimidine-4-carboxamide], the IC50 came to 1.5 µM.

`NC(=O)c1nc(NC2CCOC3(C2)CN2CCC3CC2)nc(N)c1-c1cccc(Cl)c1Cl` (stereo not drawn) [Compound 52, 6-amino-2-({4-azaspiro[bicyclo[2.2.2]octane-2,2′-oxan]-4′-yl}amino)-5-(2,3-dichlorophenyl)pyrimidine-4-carboxamide]: the IC50 is > 10 µM.

`NCC1(O)CN(c2nc(N)c(-c3cccc(Cl)c3Cl)c(C(N)=O)n2)C1` [Compound 54, 6-amino-2-[3-(aminomethyl)-3-hydroxyazetidin-1-yl]-5-(2,3-dichlorophenyl)-pyrimidine-4-carboxamide]: the IC50 is 7.7 µM.

Take `CC1(CN)CN(c2nc(N)c(-c3cccc(Cl)c3Cl)c(C(N)=O)n2)C1` [Compound 55, 6-amino-2-[3-(aminomethyl)-3-methylazetidin-1-yl]-5-(2,3-dichlorophenyl)pyrimidine-4-carboxamide]: the IC50 stood at 1.7 µM.

For the compound `Cc1nc(N2CC3CN(C)CC3C2)nc(C(N)=O)c1-c1cccc(Cl)c1Cl` (stereo not drawn) [Compound 56, 5-(2,3-Dichloro-phenyl)-6-methyl-2-(5-methyl-hexahydro-pyrrolo[3,4-c]pyrrol-2-yl)-pyrimidine-4-carboxylic acid amide], the IC50 turned out to be 0.96 µM.

Turning to `Cc1nc(N2CC(N)(CO)C2)nc(C(N)=O)c1-c1cccc(Cl)c1Cl` [Compound 57, 2-(3-Amino-3-hydroxymethyl-azetidin-1-yl)-5-(2,3-dichloro-phenyl)-6-methyl-pyrimidine-4-carboxylic acid amide], the IC50 is > 10 µM.

Consider `Cc1nc(N2CCC3(CC3N)C2)nc(C(N)=O)c1-c1cccc(Cl)c1Cl` (stereo not drawn) [Compound 58, 2-(1-Amino-5-aza-spiro[2.4]hept-5-yl)-5-(2,3-dichloro-phenyl)-6-methyl-pyrimidine-4-carboxylic acid amide], for which the IC50 came to 4.4 µM.

Regarding `CC1(N)CCN(c2ncc(-c3cccc4[nH]cnc34)c(C(N)=O)n2)CC1` [Compound 60, 2-(4-Amino-4-methyl-piperidin-1-yl)-5-(1H-benzoimidazol-4-yl)-pyrimidine-4-carboxylic acid amide], the IC50 was > 10 µM.

For `CC1(N)CCN(c2ncc(-c3cccc4nonc34)c(C(N)=O)n2)CC1` [Compound 61, 2-(4-Amino-4-methyl-piperidin-1-yl)-5-benzo[1,2,5]-oxadiazol-4-yl-pyrimidine-4-carboxylic acid amide], the IC50 is > 10 µM.

On to `CC1(N)CCN(c2nc(N)c(-c3ccc4cn[nH]c4c3Cl)c(C(N)=O)n2)CC1` [Compound 62, 6-Amino-2-(4-amino-4-methyl-piperidin-1-yl)-5-(7-chloro-1H-indazol-6-yl)-pyrimidine-4-carboxylic acid amide], for which the IC50 is > 10 µM.

As for `NC(=O)c1nc(N[C@@H]2CCCC[C@@H]2N)nc(N)c1-c1cccc(Cl)c1Cl` [Compound 65, 6-amino-2-{[(1R,2S)-2-aminocyclohexyl]amino}-5-(2,3-dichlorophenyl)-pyrimidine-4-carboxamide], the IC50 was determined as 3.7 µM.

Take `Cc1nc(N2CCC3CCC(C2)N3)nc(C(N)=O)c1-c1cccc(Cl)c1Cl` (stereo not drawn) [Compound 68, 2-(3,9-Diaza-bicyclo[4.2.1]-non-3-yl)-5-(2,3-dichloro-phenyl)-6-methyl-pyrimidine-4-carboxylic acid amide]: the IC50 was 6.2 µM.

On to `NC(=O)c1nc(N2CC(N)C2)nc(N)c1-c1cccc(Cl)c1Cl` [Compound 69, 6-amino-2-(3-aminoazetidin-1-yl)-5-(2,3-dichlorophenyl)-pyrimidine-4-carboxamide], for which the IC50 was 5.6 µM.

In the case of `NC[C@@H]1[C@H]2CN(c3nc(N)c(-c4cccc(Cl)c4Cl)c(C(N)=O)n3)C[C@@H]12` [Compound 70, 6-amino-2-[(1R,5S,6R)-6-(aminomethyI)-3-azabicyclo-[3.1.0]hexan-3-yl]-5-(2,3-dichlorophenyl)pyrimidine-4-carboxamide], the IC50 came out at 5.3 µM.

On to `NCC1CCN1c1nc(N)c(-c2cccc(Cl)c2Cl)c(C(N)=O)n1` (stereo not drawn) [Compound 71, 6-amino-2-[2-(aminomethyl)-azetidin-1-yl]-5-(2,3-dichlorophenyl)pyrimidine-4-carboxamide], for which the IC50 came to 1.3 µM.

Consider `Cc1nc(N2C[C@H]3CC[C@@H](N)[C@H]3C2)nc(C(N)=O)c1-c1cccc(Cl)c1Cl` [Compound 72, 2-((3aR,4R,6aS)-4-Amino-hexahydro-cyclopenta-[c]pyrrol-2-yl)-5-(2,3-dichloro-phenyl)-6-methyl-pyrimidine-4-carboxylic acid amide], for which the IC50 came out at 6.7 µM.

Turning to `Cc1nc(N2C[C@H]3CCC(N)[C@@H]3C2)nc(C(N)=O)c1-c1cccc(Cl)c1Cl` (stereo partly drawn) [Compound 73, 2-((3aS,6aS)-4-Amino-hexahydro-cyclopenta-[c]pyrrol-2-yl)-5-(2,3-dichloro-phenyl)-6-methyl-pyrimidine-4-carboxylic acid amide], the IC50 is 5.2 µM.

The IC50 is the concentration that inhibits the measured activity by half.

(Values after patent US11033547B2, “Carboxamide-pyrimidine derivatives as SHP2 antagonists” (Merck Patent GmbH, priority 2019, dated 2021).)
